Experimental data reported in patent publication US5990151A, “Optically active substituted phenylalkylamine derivatives” (Taisho Pharmaceutical Co., Ltd., priority 1995, dated 1999).
Counter-ions that a name gives are not always drawn.

How the values were obtained:
sigma 1 receptor [1] = molecular target: T1, sigma 1 receptor (Cavia porcellus, UniProt Q60492); assay: Receptor binding experiment, sigma 1, [3H](+)-pentazocine, membrane of total brains of guinea pigs; set-up: species or system Hartley guinea pigs; conditions: [3H](+)-pentazocine (2 nM), 25° C., 120 minutes, 50 mM Tris-HCl pH 7.4; non-specific: 10 μM haloperidol; read-out: Sigma 1 (IC50, concentration of the test drug which inhibits individual binding by 50%)
T1 construct: A membrane specimen prepared from the total brains of guinea pigs; from tissue; host or cells: total brains of Hartley guinea pigs (membrane specimen)
Experimental: As experimental animals, Hartley guinea pigs were used. […] 121 (1994) using [^3 H] (+)-pentazocine (sigma 1) or [^3 H]1,3-di-o-tolylguanidine (DTG) (sigma 2) as a [^3 H]-labelled ligand.
A membrane specimen prepared from the total brains of guinea pigs, a [^3 H] ligand and a test drug were reacted in 50 mM Tris-HCl buffer (pH 7.4). For examining sigma 1, [^3 H](+)-pentazocine (2 nM) as a [^3 H] ligand was reacted at 25° C. for 120 minutes. For examining sigma 2, [^3 H] DTG (1 nM) as a [^3 H] ligand was reacted in the presence of 10^-7 M (+)-pentazocine at 25° C. for 90 minutes. After the completion of the reaction, the reaction solution was vacuum filtered through a glass filter (GF/B), and the radioactivity of the filter was determined with a liquid scintillation spectrometer.
The binding which occurred in the reaction in the presence 10 μM haloperidol was regarded as non-specific binding, and the difference obtained by subtracting non-specific binding from the total binding was regarded as specific binding. An inhibition curve was obtained by reacting a [^3 H] ligand at a specific concentration with a test drug at varied concentrations under the conditions described above. From this inhibition curve, the concentration of the test drug which inhibits individual binding by 50% (IC50) is obtained.

sigma 1 receptor [2] = conditions: cited from earlier work; for affinity for sigma 1 receptor: (agonist), Trends in Pharmacological Sciences, Vol. 13, pp. 85-86
humans = conditions: cited from earlier work

T1 sequence (Q60492 whole entry): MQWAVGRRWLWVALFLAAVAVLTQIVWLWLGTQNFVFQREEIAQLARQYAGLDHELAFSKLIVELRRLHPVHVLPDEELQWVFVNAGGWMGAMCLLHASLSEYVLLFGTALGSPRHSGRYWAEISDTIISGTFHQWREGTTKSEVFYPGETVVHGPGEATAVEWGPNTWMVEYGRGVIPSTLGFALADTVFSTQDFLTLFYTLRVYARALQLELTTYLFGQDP

Structure (SMILES)	IC50 (sigma 1 receptor [1])	specificity to and affinity for sigma 1 receptor (sigma 1 receptor [2]; sigma antagonist, background art)	develop psychotic symptoms in humans (humans)	affinity for sigma 1 receptor (sigma 1 receptor [2])
CCCNC(CCC(C)C)Cc1ccc(OC)c(OCCc2ccccc2)c1 (single isomer, unassigned; (-)) [A, (-)-N-propyl-1-(3-methylbutyl)-2-[4-methoxy-3-(2-phenylethoxy)phenyl]ethylamine hydrochloride]	0.46 nM	–	–	–
CCCCC(Cc1ccc(OC)c(OCCc2ccccc2)c1)NCCC (single isomer, unassigned; (-)) [B, (-)-N-propyl-1-butyl-2-[4-methoxy-3-(2-phenylethoxy)-phenyl]ethylamine hydrochloride]	0.73 nM	–	–	–
C[C@@H]1CN(CCCn2c3ccccc3c3ccccc32)C[C@H](C)N1 [Rimcazole]	–	not sufficient	–	–
C=CCN1CCC2(C)c3cc(O)ccc3CC1C2C (stereo not shown) [SKF10047, N-arylnormethazocine]	–	–	develop psychotic symptoms in humans	high affinity
CC(C)=CCN1CCC2(C)c3cc(O)ccc3CC1C2C (stereo not shown) [pentazocine]	–	–	develop psychotic symptoms in humans	high affinity
